pEC50: −log10 of the molar value. The source made the active and inactive calls. The rule behind the calls is not given here.

A word on the pEC50: it is the EC50 on a negative log10 scale, so that one unit is a factor of ten.

One test deals with glutathione S-transferase (GST-GSH binding). As to the kind of experiment: GST–glutathione interaction disruption – biochemical, multiplex beads, flow cytometry, HPSMTB buffer, profiling panel (AID 1324).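 Note: glutathione beads loaded with GST-green fluorescent protein and no fluorescent Bim peptide.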 Particulars: multiplex bead flow cytometry, MCF. (In general: Flow cytometry measures light scatter and fluorescence of single cells or particles in a stream.)
For the compound `COc1cc(OC)c([N+](=O)[O-])cc1/C=N/NC(=O)c1ccncc1`, the EC50 entry is “inactive”. For the compound `COc1cccc(/C=N/Nc2nn3cnnc3c3ccccc23)c1`, the pEC50 is 5.14. Take `COc1ccc(-n2c(=O)c3ccccc3c3ccccc3c2=O)c(OC)c1`: the EC50 result is “inactive”. With `CN(/N=C/C=C/c1ccccc1)C1=NS(=O)(=O)c2ccccc21`, the negative-log EC50 (pEC50) was 5.60.

`COc1ccc(C2=Nn3c(nnc3-c3ccco3)SC2)cc1OC`: the negative-log EC50 (pEC50) is 5.34.

Still in this test, the particulars now being: multiplex bead flow cytometry, MCF, active compounds read high, concentration not given here.
With `Cc1cc(-c2csc(N)n2)c(C)n1CCC(C)C`, the percent span inhibition entry is “inactive”. As to `CCSc1ncc(Cl)c(C(=O)Nc2sc3c(c2C(=O)NCc2cccnc2)CCCC3)n1`, the percent span inhibition result was “inactive”. The same measure, in the same setting: the result for `CCOc1ccc(-n2cc(-c3ccc(OC)c(OC)c3)[nH]c2=S)cc1` reads “inactive”; that for `COC(=O)c1[nH]c2ccccc2c1NC(=O)c1ccccc1[N+](=O)[O-]`, “inactive”.

Regarding `C/C(=N\NC(=O)Cc1cccn1C)c1ccc2ccccc2c1`, the percent span inhibition result is “inactive”. On the same count and under the same terms, the result for `CNCc1ccccc1Sc1cc(O)ccc1O` reads “inactive”; that for `Cc1cc(N)ccc1N1CCCC1`, “inactive”; that for `COc1ccc(NC(=O)c2cc(-c3ccc(C)o3)nc3ccccc23)cc1OC`, “inactive”. On the same count and under the same terms, the same measure for `O=C(Cc1ccc(-c2ccccc2)cc1)NC1CCCC1`: “inactive”; for `O=C(NCc1ccccc1)C(=O)Nc1nc(C23CC4CC(CC(C4)C2)C3)cs1`: “inactive”; for `CC(C)C(=O)N1CCN(c2ccc([N+](=O)[O-])cc2Cl)CC1`: “inactive”.

As for `CN(Cc1ccccc1)C(=O)c1[nH]cnc1C(=O)N[C@@H](CCCCNC(=O)OC(C)(C)C)C(=O)OC(C)(C)C`, the percent span inhibition result is “inactive”.

Consider `CC(C)(C)C1CCC(=NNC(=O)c2cc3c(s2)CCCC3)CC1` (stereo not given), for which the percent span inhibition entry is “inactive”. For the compound `Cn1c(CCNC(=O)C2CCCCC2)nc2cc(NC(=O)c3cccs3)ccc21`, the percent span inhibition result was “inactive”. Regarding `CC(NCc1ccc(-c2ccccc2)cc1)C(O)c1ccccc1` (stereo not given), the percent span inhibition entry is “inactive”.

For `NC(=O)CSc1nnc(Cn2cnc3ccccc32)o1`, the percent span inhibition entry was “inactive”. Same read-out and setting: the result for `O=C(NCc1ccccn1)c1ccc2nc(-c3ccco3)c(-c3ccco3)nc2c1` reads “inactive”; that for `Cc1ccc(-c2cc(C(=O)OCC(=O)N(C)C3CCS(=O)(=O)C3)c3ccccc3n2)o1` (stereo not given), “inactive”. The same measure, in the same setting: the same measure for `COc1ccc(-n2c(NC(=O)c3ccco3)c(C#N)c3nc4ccccc4nc32)cc1`: “inactive”; for `CS(=O)(=O)NN1C(=O)c2ccccc2NC1c1cccs1` (stereo not given): “inactive”. Regarding `CCC(CC)C(=O)Nc1cccc(S(=O)(=O)c2cccc(NC(=O)C(CC)CC)c2)c1`, the percent span inhibition entry was “inactive”. On to `Cc1ccc(N=C2NC(=O)/C(=C/C=C/c3ccco3)S2)cc1`, for which the percent span inhibition result is “inactive”. In the case of `COc1ccc(/C=C2\SC(=O)NC2=S)cc1OC`, the percent span inhibition result was “inactive”.

Consider `Cc1ccc(/C=N/N(C)C2=NS(=O)(=O)c3ccccc32)o1`, for which the percent span inhibition entry was “inactive”. The same measure, in the same setting: the same measure for `CCOC(=O)c1ccc(N=c2ssnc2Cl)cc1`: “inactive”; for `Cc1ccc(-c2cc(-c3ccccc3Cl)c(C#N)c(N)n2)o1`: “inactive”. On to `CCc1nnc(NC(=O)CSc2nnc(COc3ccc(C)cc3)n2-c2ccccc2)s1`, for which the percent span inhibition entry is “inactive”.

`Cc1cccc(-n2c(-c3ccncc3)n[nH]c2=S)c1`: the percent span inhibition result was “inactive”.

In the case of `O=C(CNC(=O)c1ccc(S(=O)(=O)N2CCCC2)cc1)N/N=C/c1ccc(Cl)cc1Cl`, the percent span inhibition entry was “inactive”. Same read-out and setting: the result for `CCSc1ncnc2sc(C)c(C)c12` reads “inactive”; that for `BrC(=C\c1ccccc1)/C=N/N1CCN(c2ccccc2)CC1`, “inactive”. For `CCSc1nnc(NC(=O)c2c(-c3ccccc3Cl)noc2C)s1`, the percent span inhibition result is “inactive”. Still for that read-out and setting: the result for `Cc1ccc(-c2n[nH]c(=S)n2-c2ccccc2)cc1` reads “inactive”. Regarding `CCN(CC)c1ccc(NC(=O)COc2ccccc2C)cc1S(=O)(=O)Nc1ccccc1OC`, the percent span inhibition result is “inactive”. On the same count and under the same terms, the result for `CCOC(=O)c1snc(-c2ccc(F)cc2)c1N` reads “inactive”; that for `Cc1nc2scc(-c3ccccc3)c2c(=O)n1N=C1C=CC(=O)C=C1`, “inactive”; that for `COc1ccc(NC(=O)Cc2c(F)cccc2Cl)c(OC)c1`, “inactive”. Still for that read-out and setting: the same measure for `Cc1cc(C)c2nc3nc(C)cc(C)c3c(N)c2c1`: “inactive”; for `COc1c(C)cc(Br)cc1C(=O)Nc1ccc(S(N)(=O)=O)cc1`: “inactive”.

On to `Nc1cccc(-c2cn3cccnc3n2)c1`, for which the percent span inhibition result was “inactive”. The same measure, in the same setting: the result for `Cc1ccc(-c2nc3c(c(=O)[nH]c(=O)n3Cc3ccccc3)n2C)o1` reads “inactive”; that for `Cc1cccc(Nc2nc(-c3ccncc3)cs2)c1`, “inactive”. On the same count and under the same terms, the result for `COc1cc(NC(=S)NC(=O)c2cc(C)cc(C)c2)ccc1NC(=O)c1cccs1` reads “inactive”; that for `Cc1ccnc(NS(=O)(=O)c2ccc(NS(=O)(=O)c3cccs3)cc2)n1`, “inactive”. Still for that read-out and setting: the same measure for `CC(/C=C/C(=O)c1ccc(C)cc1)=C\c1ccccc1`: “inactive”. `N/C(Cc1ccc(Cl)c(Cl)c1)=N\OC(=O)c1cccs1`: the percent span inhibition entry is “inactive”. Same read-out and setting: the result for `CN(C)/C=C/C(=O)c1ccc(C(F)(F)F)cc1F` reads “inactive”.

Turning to `Cn1c(=O)[nH]c(=O)c2c1nc(N1CCOCC1)n2CCSc1nc2ccccc2[nH]1`, the percent span inhibition entry is “inactive”. On to `COc1cc(/C=N/NC(=O)c2ccc([N+](=O)[O-])cc2Cl)cc(Br)c1O`, for which the percent span inhibition entry is “inactive”. Same read-out and setting: the same measure for `CC(=O)OCCCNc1cc(Sc2nc3ccccc3s2)c2nonc2c1[N+](=O)[O-]`: “inactive”; for `CCCC1(C(=O)OCC)NC(c2cc(OC)c(OC)c(OC)c2)C2C(=O)N(CC)C(=O)C21` (stereo not given): “inactive”; for `Cn1c(N)c(C(=O)COC(=O)c2cc(-c3ccco3)nc3ccccc23)c(=O)n(Cc2ccccc2)c1=O`: “inactive”. In the case of `CC(=O)OCCNc1cc(Sc2nc3ccccc3[nH]2)c2nonc2c1[N+](=O)[O-]`, the percent span inhibition result was “inactive”. Turning to `O=C(Cn1c2ccccc2c(=O)c2ccccc21)N/N=C/c1ccc(N2CCCC2)c([N+](=O)[O-])c1`, the percent span inhibition entry is “inactive”. Turning to `O=C(c1ccccc1NS(=O)(=O)c1ccc(Br)s1)N1CCCC1`, the percent span inhibition entry was “inactive”.

As for `COc1cc(/C=C2/NC(=O)N(Cc3ccccc3F)C2=O)ccc1O`, the percent span inhibition result was “inactive”. Same read-out and setting: the result for `c1ccc2c(N3CCOCC3)nc(N3CCOCC3)nc2c1` reads “inactive”.

Turning to `O=C(O)/C=C/C(=O)NNC(=O)c1ccc(Br)cc1`, the percent span inhibition result is “inactive”. On the same count and under the same terms, the same measure for `CN(C)c1cccc(NC(=O)C2(C)CC2(Cl)Cl)c1` (stereo not given): “inactive”. In the case of `COC(=O)Cc1cc(=O)[nH]c(Nc2nc3ccccc3o2)n1`, the percent span inhibition result is “inactive”.

On to `O=C(c1cc2ccccc2oc1=O)N(c1ccccc1)C1C=CS(=O)(=O)C1` (stereo not given), for which the percent span inhibition entry is “inactive”. For the compound `COC(=O)/C(=C/c1ccc(F)cc1)NC(C)=O`, the percent span inhibition entry is “inactive”. On to `O=C(NCCN1CCOCC1)c1cc(Cl)ccc1[N+](=O)[O-]`, for which the percent span inhibition entry was “inactive”. The same measure, in the same setting: the same measure for `Brc1ccc2ncnc(Nc3ccc(N4CCOCC4)cc3)c2c1`: “inactive”; for `COC(=O)CCC(=O)Nc1sc(Cc2ccccc2)c(C)c1C(N)=O`: “inactive”.

These data come from PubChem BioAssay AID1324 (NMMLSC, 2008).
